Test results as given in PubChem BioAssay (NCI).
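Tested at 5 concentrations; 48 h exposure; 96-well plates; endpoints linearly interpolated, else capped at highest concentration. TGI marks complete inhibition of growth.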

Experiments:
Assay in all cases: inhibition of tumour cell growth, NCI panel, 48 h
[1] = tested on: A498 renal
[2] = tested on: ACHN renal
[3] = tested on: HCC-2998 colon
[4] = tested on: K-562 leukemia
[5] = tested on: MDA-N
[6] = tested on: OVCAR-3 ovarian
[7] = tested on: PC-3 prostate
[8] = tested on: SK-MEL-2 melanoma
[9] = tested on: SK-MEL-28 melanoma
[10] = tested on: SNB-19 CNS
[11] = tested on: UACC-62 melanoma

Compound | TGI [1] [µM] | TGI [2] [µM] | TGI [3] [µM] | TGI [4] [µM] | TGI [5] [µM] | TGI [6] [µM] | TGI [7] [µM] | TGI [8] [µM] | TGI [9] [µM] | TGI [10] [µM] | TGI [11] [µM]
c1ccc(OCc2nnc(CCCCCCCCc3nnc(COc4ccccc4)o3)o2)cc1 | > 100 | > 100 | > 100 | > 100 | > 100 | > 100 | > 100 | > 100 | > 100 | > 100 | –
CC(C)=CCC[C@@H](C)C1=C(O)C(Nc2ccccc2)=C(C)C(=O)C1=O | 87.1 | 36.1 | > 100 | > 80.9 | > 100 | > 52.2 | > 100 | > 89.9 | > 100 | > 100 | 54.5
Cc1ccc2c(c1)Nc1ccccc1P2(=O)O | > 100 | > 100 | > 100 | > 100 | > 100 | > 100 | > 100 | > 100 | > 100 | > 100 | > 100
CCOC(=O)Cc1cc(=O)[nH]c(-n2[nH]c(C)c(CCO)c2=O)n1 | > 100 | > 100 | > 100 | > 100 | > 100 | > 100 | > 100 | > 100 | > 100 | > 100 | > 100
CC(C)OP(=O)(OC(C)C)/C(C#N)=C/c1c[nH]c2ccccc12 | > 100 | > 100 | > 100 | > 100 | > 100 | > 100 | > 100 | > 100 | > 100 | > 100 | > 100
Clc1ncnc2c1nc(C#Cc1ccccc1)n2C1CCCCO1 (configuration not stated) | 8.84 | 3.06 | 3.54 | 7.46 | 8.12 | 2.92 | 11.8 | 6.49 | 4.78 | 6.22 | 5.84
O=C1Nc2ccccc2SC1=C(C(=O)c1ccccc1)C(=O)c1ccccc1 | > 80.3 | > 100 | 63.8 | > 100 | 48.8 | 41.5 | > 100 | 67.1 | > 100 | > 100 | 51.6
CSc1c(C)n([O-])c2cc(Cl)c(Cl)cc2[n+]1=O | 61.6 | 30.7 | 38 | 11.1 | 33.9 | 33.1 | 38.9 | 46 | 39 | > 100 | 28.9
Cc1ccsc1/C=N/Nc1cc(C)c2ccccc2n1 | 23 | 34.9 | 31.7 | 78.4 | 29.3 | 26.6 | 51.4 | 51.2 | 30.2 | 32.8 | 26.6
CN1C/C(=C\c2cccs2)C(=O)/C(=C/c2cccs2)C1 | 71.2 | 66.1 | 45.5 | > 100 | 61.7 | > 100 | > 100 | 48.9 | > 100 | > 100 | > 100
CCCCOc1ccc(S(=O)(=O)/N=C(\NO)Nc2ccc(Cl)cc2)cc1 | 26.7 | 28.2 | 28.9 | 41.2 | 31.6 | 28.4 | 29.7 | 31.6 | 36.1 | 30.5 | 28.8
COc1ccc(/N=N/C(=NNC(=O)c2ccc(C)cc2)c2ccc(N(C)C)cc2)cc1 | > 100 | > 89.9 | 98.4 | > 100 | > 73.4 | > 79.4 | > 100 | > 100 | > 100 | > 100 | > 83.1
CCOC(=O)CCC(NC(=O)c1ccc(Nc2nc3ccccc3nc2C(=O)OCC)s1)C(=O)OCC (configuration not stated) | > 100 | – | > 100 | > 100 | > 100 | > 100 | > 100 | > 100 | > 100 | > 100 | > 100
COc1cccc(N(CN2C(=O)CCC2OC)C(C)=O)c1 (configuration not stated) | > 100 | > 100 | > 100 | > 100 | > 100 | > 100 | > 100 | > 100 | > 100 | > 100 | > 100
